Measured values from the RepoRT retention time repository (doi:10.1016/j.chroma.2015.11.014).

Experiment: RP, Agilent ZORBAX Eclipse Plus C18, 150 × 2.1 mm, 3.5 µm, 40 °C, 0.3 mL/min, estimated dead time 1.1 min; A: water + 0.1% formic acid; B: acetonitrile + 0.1% formic acid; gradient (min/%B) 0/2 1/2 2/20 16.5/98 22/98
Details: stereoisomer not certain

| Compound | LC retention time [min] |
| --- | --- |
| CC(=O)C1CCC2C3CCC4=CC(=O)CCC4(C)C3CCC12C (stereo not given) | 13.8 |
| O=C(O)c1ccc(O)cc1 | 5.62 |
| CC1=CC(C)(C)Nc2ccccc21 | 12.5 |
| COC(=O)Nc1nc2ccccc2[nH]1 | 5.08 |
| COP(=O)(NC(C)=O)SC (stereo not given) | 4.5 |
| C#CC1(O)CCC2C3CCC4=CC(=O)CCC4(C)C3CCC21C (stereo not given) | 11.7 |
| O=C(O)CC1(C(=O)O)CCCCC1 | 7.49 |
| Nc1ncnc2c1ncn2C1OC(CO)C(O)C1O (stereo not given) | 3.2 |
| CC(C)NCC(O)COc1cccc2[nH]ccc12 (stereo not given) | 5.15 |
| OC(c1ccccc1)(c1ccccc1)C1CCNCC1 | 6.64 |
| COc1nc(NC(C)C)nc(NC(C)C)n1 | 7.39 |
| CCCCCCCCCCC(C(=O)c1ccc(OC)c(OC)c1)[N+](C)(C)C (stereo not given) | 10.9 |
| COC1CC(CC2CCC(C)C(C(C)C(=O)O)O2)OC2(OC(C)(C3CCC(C)(C4OC(C5OC(O)(CO)C(C)CC5C)CC4C)O3)CC2C)C1C (stereo not given) | 21.2 |
| CN1C(=O)NC(=O)C1(C)C | 5.06 |
| N#CSCSc1nc2ccccc2s1 | 12.4 |
| O=C(CCc1ccc(O)cc1)c1c(O)cc(O)cc1O | 8.77 |
| CC[N+](CC)(CC([O-])=Nc1c(C)cccc1C)Cc1ccccc1 | 7.58 |
| c1ccc(-c2nc3ccccc3[nH]2)cc1 | 5.9 |
| CCCCC[N+](CCCCC)(CCCCC)CCCCC | 11.3 |
| O=C(O)C(c1ccccc1)C1CCCCN1 (stereo not given) | 4.91 |
| CCN(CC)C(=O)c1cccc(CO)c1 | 6.97 |
| C#CC1(O)CCC2C3CCC4=CC(=O)CCC4C3CCC21CC (stereo not given) | 12.1 |
| CNCCC(Oc1cccc2ccccc12)c1cccs1 (stereo not given) | 8.43 |

| Compound | LC retention time [min] |
| --- | --- |
| NC1=NC(O)c2ncn(COCCO)c2N1 (stereo not given) | 3.12 |
| CCC1(C2OC(C3OC(O)(CO)C(C)CC3C)CC2C)CCC(C2(C)CCC3(CC(O)C(C)C(C(C)C(OC)C(C)C(=O)O)O3)O2)O1 (stereo not given) | 20.4 |
| O=P(O)(Oc1ccccc1)Oc1ccccc1 | 8.14 |
| NC(=O)N1c2ccccc2C2OC2c2ccccc21 (stereo not given) | 7.59 |
| CCc1cccc(C)c1N | 7.96 |
| C=CCC1=C(C)C(OC(=O)C2C(C=C(C)C)C2(C)C)CC1=O (stereo not given) | 16.1 |
| CN1C2CCC1C(C(=O)O)C(OC(=O)c1ccccc1)C2 (stereo not given) | 5.64 |
| O=C(O)c1cc(N=Nc2ccc(S(=O)(=O)Nc3ccccn3)cc2)ccc1O | 9.22 |
| Cc1ccc(NC(=O)c2ccc(CN3CCN(C)CC3)cc2)cc1Nc1nccc(-c2cccnc2)n1 | 6.15 |
| c1ccc(C2CN3CCSC3=N2)cc1 (stereo not given) | 5.02 |
| CC1=CC(=O)NS(=O)(=O)O1 | 4.12 |
| Cc1cccc(N(C)C(=S)Oc2ccc3ccccc3c2)c1 | 15.5 |
| Cn1cnc2c(=O)[nH]c(N)nc21 | 2.43 |
| CC(C)c1ccc(NC(=O)N(C)C)cc1 | 10.3 |
| COC(=O)NN=Cc1c[n+]([O-])c2ccccc2[n+]1[O-] | 5.82 |
| Cc1ncc(CO)c(CO)c1O | 2.11 |
| C#CC[P+](c1ccccc1)(c1ccccc1)c1ccccc1 | 7.93 |
| CC(C(=O)O)c1cccc(Oc2ccccc2)c1 (stereo not given) | 11.8 |
| C=Cc1ccc(C[N+](C)(C)C)cc1 | 5.4 |
| Cn1c(=O)[nH]c2ncn(C)c2c1=O | 5.06 |
| CC12CCC3C(CC=C4CC(O)CCC43C)C1CCC2=O (stereo not given) | 11.6 |
| CCC(C(N)=O)N1CCCC1=O (stereo not given) | 5.14 |
| CC12C=CC(=O)C=C1CCC1C2C(=O)CC2(C)C1CCC2(O)C(=O)CO (stereo not given) | 8.47 |

| Compound | LC retention time [min] |
| --- | --- |
| NCCCCC(NC(CCc1ccccc1)C(=O)O)C(=O)N1CCCC1C(=O)O (stereo not given) | 5.18 |
| Cc1ccc(C(=O)c2cc(O)c(O)c([N+](=O)[O-])c2)cc1 | 11.1 |
| CC12CCC(=O)C=C1CCC1C2CCC2(C)C(O)CCC12 (stereo not given) | 11 |
| Cn1c(=O)c2[nH]cnc2n(C)c1=O | 4.94 |
| CN(C)C1C(=O)C(C(N)=O)=C(O)C2(O)C(=O)C3=C(O)c4c(O)cccc4C(C)(O)C3CC12 (stereo not given) | 5.46 |
| CCN1C=CN(C)C1 | 1.34 |
| CC(=O)Nc1ccc(C)cc1 | 7.71 |
| O=C(Nc1ccccc1)Nc1ccccc1 | 10.8 |
| CCN(C)C(=O)Oc1cccc(C(C)N(C)C)c1 (stereo not given) | 6.08 |
| O=c1[nH]c2ccccc2s1 | 7.78 |
| CSc1ccc(O)cc1C | 9.8 |
| CCCCP(=O)(CCCC)CCCC | 11.1 |
| CCCOP(=O)(OCCC)OCCC | 10.9 |
| CCN1CCCC1CNC(=O)c1cc(S(=O)(=O)CC)c(N)cc1OC (stereo not given) | 5.57 |
| Nc1cccc2c1CN(C1CCC(=O)NC1=O)C2=O (stereo not given) | 5.24 |
| O=c1[nH]c2c(c(=O)n1C1CCCCC1)CCC2 | 9.02 |
| CCCCC(CC)COP(=O)(Oc1ccccc1)Oc1ccccc1 (stereo not given) | 17 |
| O=S(=O)(O)c1ccc2nc(-c3ccccc3)[nH]c2c1 | 5.04 |
| c1ccc(CNCc2ccccc2)cc1 | 6 |
| Nc1nc(N)c2nc(-c3ccccc3)c(N)nc2n1 | 5.2 |
| CC(C)NCC(O)COc1ccc(CCO)cc1 (stereo not given) | 5.11 |
| COC1C=COC2(C)Oc3c(C)c(O)c4c(O)c(c5c(nc6cc(C)ccn65)c4c3C2=O)NC(=O)C(C)=CC=CC(C)C(O)C(C)C(O)C(C)C(OC(C)=O)C1C (stereo not given) | 11.8 |
| CC(C)(C)P(C(C)(C)C)C(C)(C)C | 5.22 |

Second part, the compound after the results:

| LC retention time [min] | Compound |
| --- | --- |
| 8.85 | CC(=O)OCCCC[P+](c1ccccc1)(c1ccccc1)c1ccccc1 |
| 4.89 | CC(C)NCC(O)COc1ccc(CC(=O)O)cc1 (stereo not given) |
| 6.96 | COc1ccc(O)cc1 |
| 6.01 | COCCOCCOCCOCCOC |
| 2.77 | CC(Cn1cnc2c(N)ncnc21)OCP(=O)(O)O (stereo not given) |
| 12.6 | O=C1CC(c2ccccc2)Oc2ccccc21 (stereo not given) |
| 4.44 | Cn1cnc2[nH]c(=O)[nH]c(=O)c21 |
| 2.38 | Cn1cnc2c(=O)[nH]c(=O)[nH]c21 |
| 2.17 | Nc1ncnc2c1ncn2C1CC(O)C(COP(=O)(O)O)O1 (stereo not given) |
| 11.4 | CCCCCCCCCCCCCCN(C)C |
| 5.62 | NC(Cc1ccc(Oc2ccc(O)cc2)cc1)C(=O)O (stereo not given) |
| 4.27 | CCCC[N+]1(C)CCCC1 |
| 11 | CCCC1OC2CC3C4CCC5=CC(=O)C=CC5(C)C4C(O)CC3(C)C2(C(=O)CO)O1 (stereo not given) |
| 3.1 | Nc1ccn(C2CSC(CO)O2)c(=O)n1 (stereo not given) |
| 2.31 | CCNc1nc(N)[nH]c(=O)n1 |
| 7.19 | NC(=O)N1c2ccccc2CC(O)c2ccccc21 (stereo not given) |
| 9.91 | CCc1cccc(C)c1N(C(=O)C(=O)O)C(C)COC (stereo not given) |
| 15.4 | CCC(C)(C)C(=O)OC1CC(C)C=C2C=CC(C)C(CCC3CC(O)CC(=O)O3)C21 (stereo not given) |
| 9.73 | c1ccc(COCCC[P+](c2ccccc2)(c2ccccc2)c2ccccc2)cc1 |
| 12.3 | Cc1cc(OCCOCC[N+](C)(C)Cc2ccccc2)ccc1C(C)(C)CC(C)(C)C |
| 4.75 | NCC(O)COc1ccccc1 (stereo not given) |
| 7.39 | CC[P+](c1ccccc1)(c1ccccc1)c1ccccc1 |
| 8.32 | CC12CCC(=O)C=C1CCC1C2C(O)CC2(C)C1CCC2(O)C(=O)CO (stereo not given) |
| 7.36 | CCN(CC)C(=O)c1cccc(C(=O)O)c1 |
| 7.56 | O=C(O)c1ccccc1 |
| 12.5 | CC(=O)C1(O)CCC2C3CC(C)C4=CC(=O)CCC4(C)C3CCC21C (stereo not given) |

| LC retention time [min] | Compound |
| --- | --- |
| 14.1 | O=C(NC1CCCCC1)N(Cc1ccccc1)Cc1ccccc1 |
| 8 | CCOC(=O)C[P+](c1ccccc1)(c1ccccc1)c1ccccc1 |
| 10.8 | O=C(NC1CCCCC1)NC1CCCCC1 |
| 7.48 | COc1cc(O)c(C(=O)c2ccccc2)cc1S(=O)(=O)O |
| 8.09 | COc1cc(NS(=O)(=O)c2ccc(N)cc2)nc(OC)n1 |
| 13 | CCCCCCCCCCCCCCCC[N+](C)(C)CC |
| 4.83 | CNC(=C[N+](=O)[O-])NCCSCc1ccc(CN(C)C)o1 |
| 13.2 | CNC(=O)C(=NOC)c1ccccc1COc1cc(C)ccc1C |
| 7.88 | COC(=O)c1cccc(O)c1 |
| 8.01 | Cc1cc2n[nH]nc2cc1C |
| 9.91 | CCOCCOC(=O)Nc1ccc(C)c(NC(=O)OCCOCC)c1 |
| 6.12 | Cc1cc(C)nc(NS(=O)(=O)c2ccc(N)cc2)n1 |
| 6.53 | CCN(CC)C(=O)Nc1ccc(OCC(O)CNC(C)(C)C)c(C(C)=O)c1 (stereo not given) |
| 4.53 | Cc1cn(C2CC(O)C(CO)O2)c(=O)[nH]c1=O (stereo not given) |
| 14 | CCCCCCCCCCCCCCCCCC[N+](C)(C)C |
| 3.15 | O=c1[nH]cnc2[nH]ncc12 |
| 11.2 | CC12CCC3c4ccc(O)cc4CCC3C1CCC2=O (stereo not given) |
| 10.9 | COc1ccc2cc(C(C)C(=O)O)ccc2c1 (stereo not given) |
| 4.69 | Nc1ccc(O)c([N+](=O)[O-])c1 |
| 16.2 | CCCCCCCC[N+](CCCCCCCC)(CCCCCCCC)CCCCCCCC |
| 5.35 | CCNCC(=O)Nc1c(C)cccc1C |
| 7.62 | CCOc1ccc(NC(C)=O)cc1 |
| 6.88 | CC(C)NCC(O)COc1cccc2[nH]c3ccccc3c12 (stereo not given) |
| 8.83 | CCOC(=O)c1ccc(O)cc1 |
| 6.5 | CC1c2cccc(O)c2C(O)=C2C(=O)C3(O)C(O)=C(C(N)=O)C(=O)C(N(C)C)C3C(O)C21 (stereo not given) |
